Assay results reported in patent publication US20060063828A1 (priority 2004, published 2006).
pIC50: −log10 of the molar value.

Assays:
VCAM-1 = test: In Vitro VCAM-1 Assay (ELISA of VCAM-1 on TNF-α stimulated endothelial cells); format: cell-based; conditions: Endothelial cell; primary human aortic (HAEC) or pulmonary (HPAEC) endothelial cells, TNF-α (1 ng/ml), approximately 16 hours
Experimental: Cell Culture and compound dosing: Cultured primary human aortic (HAEC) or pulmonary (HPAEC) endothelial cells were obtained from Clonetics, Inc., and were used below passage 9. Cells were seeded in 96 well plates such that they would reach 90-95% confluency by the following day. On the following day the cells were stimulated with TNF-α (1 ng/ml) in the presence or absence of compounds dissolved in DMSO such that the final concentration of DMSO is 0.25% or less. To establish a dose curve for each compound, four concentrations in 2- to 5-fold increments were used. Cells were exposed to TNF-α and compounds for approximately 16 hours. The next day the cells were examined under microscope to score for visual signs of toxicity or cell stress.
Following 16 hr exposure to TNF-α and compound the media was discarded and the cells were washed once with Hanks Balanced Salt Solution (HBSS)/Phosphate buffered saline (PBS) (1:1). Primary antibodies against VCAM-1 (0.25 μg/ml in HBSS/PBS+5% FBS) were added and incubated for 30-60 minutes at 37° C. Cells were washed with HBSS/PBS three times, and secondary antibody Horse Radish Peroxidase (HRP)-conjugated goat anti-mouse IgG (1:500 in HBSS/PBS+5% FBS) were added and incubated for 30 minutes at 37° C. Cells were washed with HBSS/PBS four time and TMB substrate were added and incubated at room temperature in the dark until there was adequate development of blue color. The length of time of incubation was typically 5-15 minutes. 2N sulfuric acid was added to stop the color development and the data was collected by reading the absorbance on a BioRad ELISA plate reader at OD 450 nm. The results are expressed as IC50 values (the concentration (micromolar) of compound required to inhibit 50% of the maximal response of the control sample stimulated by TNF-α only).

Male Lewis rats = test: Rheumatoid Arthritis Protocol (adjuvant-induced paw swelling); format: in vivo; conditions: M. butyricum adjuvant
Experimental: Male Lewis rats (150-175 g) from Charles River Laboratories were anesthetized on day 0 with 3-5% isoflurane anesthesia while the tail base was shaved and adjuvant mixture was injected. 50 μL of adjuvant (10 mg/ml M. butyricum in mineral oil) was injected subcutaneously into two sites at the tail base. Paw swelling was monitored using a plethysmometer (UGO Basile), after shaving each leg to the level of the Achilles tendon to mark the level of immersion. A baseline paw measurement for both hindpaws was taken between […] a second measurement was taken on day 8. Onset of paw swelling occurred rapidly between days 8-11 and daily measurements were performed every weekday between day 8 and day 14. Compounds of the invention and vehicles were dosed therapeutically (d8-13) after swelling was confirmed. Solutions were injected subcutaneously or given orally by gavage 1-2 times per day. From day 0, rats were weighed on days 0, 8, 11, and 14 and overall health was monitored. Plasma drug levels, if desired, were measured in tail-vein derived blood samples taken on day 13. On day 14, blood samples were obtained by cardiac puncture, rats were euthanized with CO2, selected organs were removed and both hindpaws were amputated and placed in 10% buffered formalin for histopathological analysis. See Biological Table 2.

Balb/C mice = test: Asthma Protocol (ovalbumin sensitized and challenged mice, bronchoaveolar lavage cell counts); format: in vivo; conditions: ovalbumin sensitized and aerosol challenged, lavage fluid cell counts
Experimental: Balb/C mice (6-8 weeks old) are sensitized to ovalbumin (ova) (8 ug ova absorbed in 3.3 mg Alum inject) on days 0 and 5. On day 12, the mice were aerosol challenged with 0.5% ovalbumin dissolved in sterile saline for 1 h in the AM, and then again in the PM (at least 4 h apart). On day 14, the mice were anesthetized with ketamine/xylazine/acepromazine cocktail, exsanguinated, and then euthanized. Following blood collection, bronchoaveolar lavage was performed on each animal. Total cell counts were conducted on the lavage fluid. The lavage fluid was processed and slides were made by spinning the samples with a cytospin centrifuge. Slides were airdried and stained using Diff-Quik® stain. Cell differentials of the lavage fluid were completed at the conclusion of the study. Statistical analysis involved ANOVA and Tukey-Kramer post hoc tests. Compounds were administered by subcutaneous injection twice daily from day 11-13. The formulations used contained various mixtures of the following excipients (pharmasolve, cremophor RH 40, tween 80, PEG 300). See Biological Table 3

Row | SMILES | pIC50 (VCAM-1) | % Inhibition 20 mg/kg sq, bid, d8-13 (Male Lewis rats) | % Inhibition 6 mg/kg sq, bid, d11-13 (Balb/C mice) | melting point
1 | C=C(C(=O)c1ccc(C(=O)O)cc1)c1cc(-c2cccs2)ccc1OC [Example 8, 4-[2-(2-Methoxy-5-thien-2-yl-phenyl)-acryloyl]-benzoic acid] | > 6.00 | 44% | 50% | 
2 | C=C(C(=O)c1c(OC)ccc(-c2cccs2)c1OC)c1ccc(C(=O)O)cc1 [Example 30, 4-[1-(2,6-Dimethoxy-3-thien-2-yl-benzoyl)-vinyl]-benzoic acid] | > 6.00 | 77% | 45% | 193 to 195 °C
3 | C=C(C(=O)c1c(OC)cccc1OC)c1ccc(OC(C)(C)C(=O)O)c(-c2cccs2)c1 [Example 37, 2-{4-[1-(2,6-Dimethoxy-benzoyl)-vinyl]-2-thien-2-yl-phenoxy}-2-methyl-propionic acid] | > 5.22 |  | 27% | 56.5 °C (dec.)
